Measurements: patent US20230338369A1, “COMBINATION OF A PROTEASOME INHIBITOR AND A HDAC INHIBITOR AND ITS USE FOR THE TREATMENT OF GENETIC DISEASES LINKED TO A PROTEIN CONFORMATIONAL DISORDER” (Centre d'Etude des Cellules Souches (CECS), priority 2019, published 2023)
Read-outs that look alike come from different tables or passages of the source. Peptide text beside a SMILES is read from it. * marks the point of attachment. Cbz = O=C(OCc1ccccc1)*

Columns and labels:
R77C-α-SGmCh = assay: SG localization cell-based assay: membrane rescue of R77C-α-SGmCh in immortalized LGMD-R3 patient fibroblasts; set-up: species or system human; conditions: for effect on R77C-α-SGmCh mutant protein rescue in combination with givinostat: low doses: carfilzomib 10 nM, MG132 100 nM, increasing concentrations of givinostat; for EC50: read-out: EC50, presence of R77C-α-SGmCh at the membrane
Method: Cells were analyzed after 24 hours of treatment.
In order to easily evaluate the membrane localization of the R77C-α-SG mutant in the heterologous condition, a system was generated that allowed the simultaneous identification of the positive cells for the exogenous protein and the quantification of the amount of protein in the cell membrane. A fusion protein was created, consisting of the coding sequence for human R77C-α-SGfused with an mCherry (mCh) fluorescent reporter at the C-terminus. A flexible linker was inserted between the two coding sequences to avoid protein interference in protein maturation and folding. The construct, hereafter termed R77C-α-SGmCh, was placed under the transcriptional control of the cytomegalovirus (CMV) promoter and inserted into a lentivirus backbone. Immortalized fibroblasts from a LGMD-R3 patient were used as cellular model because of their absence of endogenous α-SG.

[1] = biological target: T1, chymotrypsin-like activity of the proteasome (Homo sapiens, UniProt P28074); assay: Proteasomal activity assay (Proteasome-Glo chymotrypsin-like cell-based assay); conditions: for chymotrypsin-like activity of the proteasome: increasing concentrations
T1 construct: endogenous in cells; host or cells: immortalized patient fibroblasts overexpressing R77C-α-SGmCh
Method: Fibroblasts were seeded in 384 well plates and treated with tested combinations as indicated for 12 hours. Proteasome-Glo™ or chymotrypsin-like cell-based assay reagents were added according to manufacturer instructions (Promega). Luminescence was read using a CLARIOstar® microplate reader (BMG Labtech).

[2] = system: ubiquitinated proteins, P62, LC3BI/II, acetylated α-tubulin, α-SG; assay: Immunoblotting of fibroblasts overexpressing R77C-α-SGmCh; assay type: cell-based, human; conditions: 24 hours; for ubiquitinated proteins (Western blot): 10 μM in combination with 5 nM BTZ
Method: (B) Western Blot analysis of ubiquitinated proteins (top panel), P62 and LC3BI/II (middle panel) and acetylated α-tubulin (bottom panel) expression in fibroblasts overexpressing R77C-α-SGmCh and treated with DMSO 0.1%, BTZ (5 nM or 30 nM), or givinostat (10 μM) in presence or in absence of 5 nM BTZ for 24 hours.
(D) Western Blot analysis of ubiquitinated proteins (middle panel), α-SG (top panel) and acetylated α-tubulin (bottom panel) expression in fibroblasts overexpressing R77C-α-SGmCh and treated with DMSO 0.1%, BTZ (5 nM or 30 nM), or tubacin (10 μM) in presence or in absence of 5 nM BTZ for 24 hours.
Twenty-four hours after seeding, the immortalized fibroblasts expressing R77C-α-SGmCh were incubated with the tested compounds or the carrier. Cells were collected after 24 hours of treatment. Proteins were extracted by cell lysis buffer (NP40 Buffer, Thermo Scientific) and Proteases Inhibitors (Complete PIC, Roche). Proteins were separated using a 3-8% Criterion™ XT tris-acetate protein gel and then transferred to PVDF membrane with a Trans-Blot Turbo Transfert system (Biorad) using the 7 min/25V program. Detection of proteins was performed using standard Odyssey protocol by incubation with the following antibodies: • Ubiquitinated proteins: Merck, 04-263; • acetylated α-tubulin: Sigma, T6793; • P62: Abcam, ab56416; • LC3BI/II: Novus, NB600-1384.

[3] = system: fibroblasts overexpressing R77C-α-SGmCh; assay: Viability test: count of Hoechst stained cells per field; conditions: increasing concentrations alone or in combination with 5 nM BTZ
Method: For overexpression of mutated α-SG and γ-SG, immortalized fibroblasts were transduced with a lentiviral vector expressing human R77C-α-SGmCh, C283Y-γ-SGmCh or E263K-γ-SGmCh with a multiplicity of infection (MOI) of 20 in the presence of 4 μg/ml of polybrene (Sigma-Aldrich). Cells were seeded on plates coated with 50 μg/ml of collagen I and maintained in a humidified atmosphere of 5% CO2 at 37-C. […] Cells were analyzed after 24 hours of treatment.
After 24 hours of drug treatment, cells were fixed in 4% paraformaldehyde (10 min, room temperature). Immunocytochemistry was performed in a phosphate-buffered saline (PBS) solution supplemented with 1% bovine serum albumin (BSA; Sigma) for blocking (1 hour, room temperature) and with a mouse anti-α-SG (NCL-L-a-SARC, Novocastra, Leica) or anti-γ-SG (NCL-L-g-SARC, Novocastra, Leica) for primary hybridization step (overnight, 4° C.). Cells were stained with a fluorophore-conjugated secondary anti-mouse antibody (Invitrogen; 1 hour, room temperature) and nuclei were visualized with Hoechst 33342 (Invitrogen). SG localization was analyzed with a CellInsight CX7 HCS Platform (Cellomics Inc). […] Pictures were acquired with a 10× objective in high-resolution camera mode and were analyzed using the colocalization bioapplication. The number of cells was monitored by counting Hoechst stained cells per field allowing quantification of the cell viability.

[4] = 10 μM with addition of 5 nM BTZ
[5] = combined treatment with 5 nM BTZ

SMILES	effect on R77C-α-SGmCh mutant protein rescue in combination with givinostat (R77C-α-SGmCh)	chymotrypsin-like activity of the proteasome [1]	R77C-α-SGmCh membrane rescue (α-SG staining) (R77C-α-SGmCh; 10 μM alone)	R77C-α-SGmCh membrane rescue (α-SG staining) (R77C-α-SGmCh; [4])	EC50 (R77C-α-SGmCh; [5]) [nM]	EC50 (R77C-α-SGmCh; treatment alone) [nM]	ubiquitinated proteins (Western blot) [2]	other results
CC(C)C[C@@H](C=O)NC(=O)[C@H](CC(C)C)NC(=O)[C@H](CC(C)C)NC(=O)OCc1ccccc1 [MG132] (Cbz-Leu-Leu-Leu-aldehyde)	synergistic effect							
O=C(/C=C/c1cccc(S(=O)(=O)Nc2ccccc2)c1)NO [belinostat]		no proteasomal inhibition	low effect	diffuse α-SG staining suggesting a synergy with BTZ	300	5300		
CC(C)C[C@H](NC(=O)[C@H](Cc1ccccc1)NC(=O)c1cnccn1)B(O)O [bortezomib]								inhibition of the proteasome activity ([1]; 5 nM BTZ): limited inhibition; R77C-α-SG degradation rescue (R77C-α-SGmCh; 5 nM BTZ): rescuing partially; R77C-α-SG localization in the plasma membrane (R77C-α-SGmCh; 30 nM, 24 hours, non-permeabilized condition): rescue of R77C-α-SG localization in the plasma membrane
CC(C)C[C@H](NC(=O)[C@H](CCc1ccccc1)NC(=O)CN1CCOCC1)C(=O)N[C@@H](Cc1ccccc1)C(=O)N[C@@H](CC(C)C)C(=O)[C@@]1(C)CO1 [carfilzomib]	synergistic effect							
CCN(CC)Cc1ccc2cc(COC(=O)Nc3ccc(C(=O)NO)cc3)ccc2c1 [givinostat, Givinostat]		no proteasomal inhibition	low effect	diffuse α-SG staining suggesting a synergy with BTZ	800	3000	synergistic accumulation of ubiquitinated proteins	acetylation of α-tubulin (Western blot) ([2]; 10 μM alone or in combination with 5 nM BTZ): induces the acetylation of α-tubulin; LC3B-I to LC3B-II conversion and P62 (Western blot) ([2]; 10 μM combined with 5 nM BTZ): increasing conversion of LC3B-I to LC3B-II with P62 accumulation
O=C(CCCCCCC(=O)Nc1ccc([C@H]2O[C@@H](CSc3nc(-c4ccccc4)c(-c4ccccc4)o3)C[C@@H](c3ccc(CO)cc3)O2)cc1)NO [tubacin, Tubacin]							synergistic accumulation of ubiquitinated proteins	acetylation of α-tubulin (Western blot) ([2]; 10 μM combined with 5 nM BTZ): acetylation of a-tubulin; α-SG protein levels (Western blot) ([2]; 10 μM combined with 5 nM BTZ): increased α-SG protein levels; cell toxicity [3]: in the same range than givinostat; membrane R77C-α-SGmCh expression (R77C-α-SGmCh; in combination with 5 nM BTZ): synergistic effect; membrane R77C-α-SGmCh expression (R77C-α-SGmCh; increasing concentrations, alone): induced a dose-response curve
